# Reference: ChEMBL document CHEMBL1134592, “Design and synthesis of matrix metalloproteinase inhibitors guided by molecular modeling. Picking the S(1) pocket using conformationally constrained inhibitors” (J Med Chem, 2001)
# How the values were obtained:
# Stromelysin-1 = Stromelysin-1 (Homo sapiens, UniProt P08254); experiment: Inhibition of matrix metalloprotease-3
# Collagenase 3 = Collagenase 3 (Homo sapiens, UniProt P45452); experiment: Inhibition of matrix metalloprotease-13
# [1] = target: 72 kDa type IV collagenase (Homo sapiens, UniProt P08253); experiment: Inhibition of matrix metalloprotease-2
# [2] = target: Matrix metalloproteinase-9 (Homo sapiens, UniProt P14780); experiment: Inhibition of human matrix metalloprotease-9
# Interstitial collagenase = target: T1, Interstitial collagenase (Homo sapiens, UniProt P03956); experiment: Inhibition of human matrix metalloprotease-1
# T1 sequence (P03956 whole entry): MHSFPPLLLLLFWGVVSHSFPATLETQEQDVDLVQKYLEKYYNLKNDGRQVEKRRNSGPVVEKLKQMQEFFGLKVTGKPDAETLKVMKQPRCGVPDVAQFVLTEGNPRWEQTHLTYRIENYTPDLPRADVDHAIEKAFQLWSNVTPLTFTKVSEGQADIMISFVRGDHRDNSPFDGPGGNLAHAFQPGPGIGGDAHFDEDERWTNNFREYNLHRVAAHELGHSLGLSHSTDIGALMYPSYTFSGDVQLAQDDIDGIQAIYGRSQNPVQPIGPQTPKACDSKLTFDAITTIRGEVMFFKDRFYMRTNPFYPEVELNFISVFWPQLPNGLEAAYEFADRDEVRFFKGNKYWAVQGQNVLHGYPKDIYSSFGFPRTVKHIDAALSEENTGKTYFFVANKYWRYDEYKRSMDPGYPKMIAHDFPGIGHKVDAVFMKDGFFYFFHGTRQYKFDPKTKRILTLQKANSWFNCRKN
# Sequence of Matrix metalloproteinase-9 (P14780 whole entry): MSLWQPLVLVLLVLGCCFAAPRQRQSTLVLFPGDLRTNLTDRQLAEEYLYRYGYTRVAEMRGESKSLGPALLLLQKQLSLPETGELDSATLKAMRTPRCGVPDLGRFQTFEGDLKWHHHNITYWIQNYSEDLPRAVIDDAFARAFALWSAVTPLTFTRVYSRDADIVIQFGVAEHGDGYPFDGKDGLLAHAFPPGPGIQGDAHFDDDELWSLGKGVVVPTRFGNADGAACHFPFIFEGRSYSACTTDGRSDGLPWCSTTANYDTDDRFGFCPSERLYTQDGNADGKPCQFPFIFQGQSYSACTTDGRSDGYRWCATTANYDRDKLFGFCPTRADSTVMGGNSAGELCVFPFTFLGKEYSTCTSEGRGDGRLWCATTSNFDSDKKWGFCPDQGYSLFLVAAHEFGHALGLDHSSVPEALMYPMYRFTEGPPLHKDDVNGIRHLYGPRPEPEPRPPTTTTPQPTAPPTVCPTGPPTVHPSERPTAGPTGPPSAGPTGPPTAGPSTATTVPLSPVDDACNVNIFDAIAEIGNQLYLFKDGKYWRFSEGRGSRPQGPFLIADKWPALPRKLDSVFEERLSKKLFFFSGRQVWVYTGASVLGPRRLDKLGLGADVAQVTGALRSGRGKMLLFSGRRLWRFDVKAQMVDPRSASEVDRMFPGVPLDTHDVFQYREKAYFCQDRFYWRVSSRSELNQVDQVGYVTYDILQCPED
# Sequence of Stromelysin-1 (P08254 whole entry): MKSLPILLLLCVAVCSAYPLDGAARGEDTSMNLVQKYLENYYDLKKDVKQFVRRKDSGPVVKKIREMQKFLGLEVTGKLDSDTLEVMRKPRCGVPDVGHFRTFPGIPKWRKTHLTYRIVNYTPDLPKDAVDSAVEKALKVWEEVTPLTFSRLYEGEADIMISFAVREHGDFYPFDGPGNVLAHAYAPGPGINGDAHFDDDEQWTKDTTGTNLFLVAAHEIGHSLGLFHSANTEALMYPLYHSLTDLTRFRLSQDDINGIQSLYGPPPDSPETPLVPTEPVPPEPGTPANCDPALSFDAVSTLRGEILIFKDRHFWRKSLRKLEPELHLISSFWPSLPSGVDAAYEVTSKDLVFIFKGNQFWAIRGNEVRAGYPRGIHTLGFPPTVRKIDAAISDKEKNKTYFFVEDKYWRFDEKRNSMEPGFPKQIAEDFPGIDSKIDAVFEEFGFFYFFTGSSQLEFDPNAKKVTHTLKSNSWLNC
# Sequence of 72 kDa type IV collagenase (P08253 whole entry): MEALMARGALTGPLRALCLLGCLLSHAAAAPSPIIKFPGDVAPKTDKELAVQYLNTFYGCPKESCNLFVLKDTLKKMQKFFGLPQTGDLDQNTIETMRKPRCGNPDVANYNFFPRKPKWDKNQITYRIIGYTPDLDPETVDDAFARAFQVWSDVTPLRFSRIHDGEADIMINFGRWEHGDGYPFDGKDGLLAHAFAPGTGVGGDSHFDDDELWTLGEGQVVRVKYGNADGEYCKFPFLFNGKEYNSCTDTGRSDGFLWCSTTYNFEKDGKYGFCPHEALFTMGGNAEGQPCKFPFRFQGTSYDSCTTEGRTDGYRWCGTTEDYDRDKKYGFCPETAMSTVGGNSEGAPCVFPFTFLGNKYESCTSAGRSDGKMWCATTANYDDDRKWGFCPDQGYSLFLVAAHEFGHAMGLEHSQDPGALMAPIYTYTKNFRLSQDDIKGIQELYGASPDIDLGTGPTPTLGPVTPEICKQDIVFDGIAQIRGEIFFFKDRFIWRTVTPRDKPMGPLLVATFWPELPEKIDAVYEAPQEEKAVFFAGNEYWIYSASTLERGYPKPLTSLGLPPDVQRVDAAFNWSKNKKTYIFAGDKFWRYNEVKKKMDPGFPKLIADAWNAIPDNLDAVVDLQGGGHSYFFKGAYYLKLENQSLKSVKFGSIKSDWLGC
IC50 (Stromelysin-1) [nM],IC50 (Collagenase 3) [nM],IC50 [1] [nM],IC50 [2] [nM],IC50 (Interstitial collagenase) [nM],Structure (SMILES)
6.7,5.5,1.64,0.9,,COc1ccc(S(=O)(=O)N2CC(C)(C)C(CSCc3ccccc3)[C@@H]2C(=O)NO)cc1 (some centres not stated)
293,519,441,138,,C=CC1[C@H](C(=O)NO)N(S(=O)(=O)c2ccc(OC)cc2)CC1(C)C (some centres not stated)
136,218,143,50,,COc1ccc(S(=O)(=O)N2CC(C)(C)C(CO)[C@@H]2C(=O)NO)cc1 (some centres not stated)
3,3.7,2.5,0.9,117,COc1ccc(S(=O)(=O)N2CC(C)(C)C([C@H](O)CSc3ccccc3)[C@@H]2C(=O)NO)cc1 (some centres not stated)

# More lines, now with the values behind:
Structure (SMILES),IC50 (Stromelysin-1) [nM],IC50 (Collagenase 3) [nM],IC50 [1] [nM],IC50 [2] [nM],IC50 (Interstitial collagenase) [nM]
COc1ccc(S(=O)(=O)N2CC(C)(C)C(CSCCc3ccccc3)[C@@H]2C(=O)NO)cc1 (some centres not stated),6.5,17,15.4,2.8,654
COc1ccc(S(=O)(=O)N2CC(C)(C)C([C@@H](O)CSc3ccccc3)[C@@H]2C(=O)NO)cc1 (some centres not stated),18.7,18.1,16.2,3.6,301
COc1ccc(S(=O)(=O)N(CC(C)C)[C@H](CCSCc2ccccc2)C(=O)NO)cc1,0.7,12,0.7,2.5,104
COc1ccc(S(=O)(=O)N2CC(C)(C)C(COCc3ccccc3)[C@@H]2C(=O)NO)cc1 (some centres not stated),10.1,44.2,32,9.2,1620
COc1ccc(CSCC2[C@H](C(=O)NO)N(S(=O)(=O)c3ccc(OC)cc3)CC2(C)C)cc1 (some centres not stated),16.7,22.3,4.6,4.4,458
